From the NIST ThermoML archive (doi:10.1021/je900676b)

Assay: heat capacity at constant pressure per volume
Settings: 10000 kPa, Liquid, Tian-Calvet differential microcalorimeter

CCCCCC[n+]1ccn(C)c1.O=S(=O)([N-]S(=O)(=O)C(F)(F)F)C(F)(F)F
Settings | heat capacity [J/K/m3]
325.02 K | 1953000
337.38 K | 1966000
349.75 K | 1972000
362.12 K | 1982000
374.48 K | 1989000
386.84 K | 2004000
399.19 K | 2009000
411.56 K | 2021000
423.91 K | 2034000
436.27 K | 2038000
448.63 K | 2053000
460.99 K | 2050000
473.35 K | 2051000
485.72 K | 2055000
498.09 K | 2067000
510.46 K | 2066000
522.84 K | 2081000
535.2 K | 2079000
547.56 K | 2096000
554.94 K | 2121000

CCCCCCCCn1cc[n+](C)c1.O=S(=O)([N-]S(=O)(=O)C(F)(F)F)C(F)(F)F
Settings | heat capacity [J/K/m3]
325 K | 1950000
337.36 K | 1964000
349.71 K | 1973000
362.07 K | 1984000
374.43 K | 1993000
386.8 K | 2004000
399.16 K | 2012000
411.52 K | 2018000
423.88 K | 2029000
436.25 K | 2036000
448.61 K | 2049000
460.97 K | 2049000
473.33 K | 2053000
485.69 K | 2056000
498.06 K | 2068000
510.42 K | 2069000
522.79 K | 2084000
535.15 K | 2082000
547.51 K | 2099000
554.94 K | 2098000
